# PMC8121805, “Discovery of first-in-class inhibitors of ASH1L histone methyltransferase with anti-leukemic activity” (Nature Communications, 2021)
# “And” between values parts separate entries of the source, which are not always exact repeats. Equal entries are not always repeated. “Also recorded” adds a separate entry of the source.
# Columns and labels:
# MV4;11 cells = test: RNA-seq global gene expression; assay type: cell-based, human
# Experimental: Total RNA was prepared from cells collected after 7 days of treatment using RNeasy Mini Kit (74106, Qiagen). 2 µg of total RNA for each sample, as quantified using Nanodrop 2000 UV-Vis spectrophotometer, was submitted to the Next-Generation Sequencing Services of the University of Michigan for RNA Sequencing on the Illumina NovaSeq (S4) Sequencer. ERCC RNA Spike-In Mix (4456740, Invitrogen™) was provided to control for variability in RNA expression.
# For analysis of RNA-seq data, Fastq generation was performed using Illumina’s bcl2fastq2 software (v2.17). The cutadapt [https://cutadapt.readthedocs.org/en/stable/] and FastQC [http://www.bioinformatics.babraham.ac.uk/projects/fastqc/] tools wrapped in Trim Galore [http://www.bioinformatics.babraham.ac.uk/projects/trim_galore/] were used to trim low quality bases (Q < 20) and adapter for raw sequences. Reads with length <20 bp were removed after trimming. […] Duplicated reads for pair-end data were removed by SAMtools (v1.5)[41]. Aligned reads were assembled using Cufflinks (v2.2.1) and assembled transcriptome catalog was used as an input for Cuffdiff2[42] to determine gene expression levels (FPKM, Fragments Per Kilobase per Million mapped reads) and differential expression between conditions using default options. Genes with p < 0.05 and fold-change >2 up or down were considered as differentially expressing genes to prepare the Volcano plot, which was generated using the “ggplot2” R package. Gene set analysis was performed and enrichment plots were generated using the “fgsea” package, with the test statistic generated by Cuffdiff2 used to rank genes for gene set enrichment analysis. Fgsea was run using the C2, C5, and C6 curated datasets from MSigDB[44]. Heatmaps for the top 20 ranked genes in the Leading Edge from a given enrichment analysis were generated with the “gplots” package [https://cran.r-project.org/web/packages/gplots/index.html].
# [1] = tested on: luciferase-expressing MV4;11 cells in NSG mice; test: MV4;11 xenotransplantation bioimaging model (bioluminescence); assay type: in vivo, mouse; settings: for average radiance: individual mice, 30 mg/kg q.d. i.p.
# DOT1L = DOT1L (Homo sapiens, UniProt Q8TEK3); test: HMT selectivity panel; settings: 50 µM compound
# Experimental: (§1) mM DTT and 0.01% Triton X-100 was used in experiments containing core histone.
# experiments containing nucleosome.
# G9a 5 core histone 0.05 mg/mL 1
# GLP 5 core histone 0.05 mg/mL 1
# MLL4 = test: HMT selectivity panel; settings: MLL4, 50 µM compound
# From the text: as §1
# NSD1 = NSD1 (Homo sapiens, UniProt Q96L73); test: HMT selectivity panel; settings: NSD1, 50 µM compound
# From the text: as §1
# PRMT1 = PRMT1 (Homo sapiens, UniProt Q99873); test: HMT selectivity panel; settings: PRMT1, 50 µM compound
# From the text: as §1
# PRMT4 = PRMT4 (Homo sapiens, UniProt Q86X55); test: HMT selectivity panel; settings: PRMT4, 50 µM compound
# From the text: as §1
# SETD2 = SETD2 (Homo sapiens, UniProt Q9BYW2); test: HMT selectivity panel; settings: SETD2, 50 µM compound
# From the text: (§2) Assay conditions for selectivity experiments with a panel of histone
# as §1
# SET7/9 = SET7/9 (Homo sapiens, UniProt Q8WTS6); test: HMT selectivity panel; settings: SET7/9, 50 µM compound
# From the text: as §2, §1
# SMYD1 = SMYD1 (Homo sapiens, UniProt Q8NB12); test: HMT selectivity panel; settings: SMYD1, 50 µM compound
# From the text: as §2, §1
# [2] = tested on: panel of diverse set of 30 kinases; test: Profiling with kinases; settings: 25 µM, 1 h incubation
# From the text: This study was outsourced to the Contract Research Organization.
# [3] = RNA-seq, MV4;11, 3 µM, seven days
# [4] = female, CD-1, mouse, plasma, other: i.v. and i.p.
# Experimental for PK studies in mice: The LC-MS/MS method consisted of a Shimadzu UFLC 20 A system and chromatographic separation of test compound was achieved using Waters XBridge C18 column (5 cm × 2.1 mm, 3.5 µm). An AB Sciex QTrap 5500 mass spectrometer equipped with an electrospray ionization source (ABI-Sciex, Toronto, Canada) in the positive-ion multiple reaction monitoring (MRM) mode was used for detection. All pharmacokinetic parameters were calculated by noncompartmental methods using WinNonlin® version 3.2 (Pharsight Corporation, Mountain View, CA, USA). Parameters are presented as a mean ± standard deviation (SD).
# CL (clearance), AUC (area under the curve),
# Cmax (maximum concentration achieved), Tmax (time at which maximum concentration was
# achieved), were calculated by noncompartmental methods using WinNonlin® software version
# Sequence of PRMT4 (Q86X55 whole entry, species assumed): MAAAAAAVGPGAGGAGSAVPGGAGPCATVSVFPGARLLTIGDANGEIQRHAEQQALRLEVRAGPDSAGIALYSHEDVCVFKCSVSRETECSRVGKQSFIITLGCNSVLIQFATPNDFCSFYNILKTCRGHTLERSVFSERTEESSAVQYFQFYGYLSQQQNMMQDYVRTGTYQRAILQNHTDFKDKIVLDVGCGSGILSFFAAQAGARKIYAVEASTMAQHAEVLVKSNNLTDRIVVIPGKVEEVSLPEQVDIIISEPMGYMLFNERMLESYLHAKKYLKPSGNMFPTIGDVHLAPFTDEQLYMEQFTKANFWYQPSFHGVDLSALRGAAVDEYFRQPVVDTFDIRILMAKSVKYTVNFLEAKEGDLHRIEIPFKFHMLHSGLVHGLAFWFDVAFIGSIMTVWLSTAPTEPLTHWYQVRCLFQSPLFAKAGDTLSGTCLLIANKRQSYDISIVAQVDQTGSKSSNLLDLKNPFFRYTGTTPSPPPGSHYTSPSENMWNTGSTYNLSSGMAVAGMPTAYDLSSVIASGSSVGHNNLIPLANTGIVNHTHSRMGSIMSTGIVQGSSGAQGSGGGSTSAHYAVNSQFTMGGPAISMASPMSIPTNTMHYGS
# Sequence of SMYD1 (Q8NB12 whole entry, species assumed): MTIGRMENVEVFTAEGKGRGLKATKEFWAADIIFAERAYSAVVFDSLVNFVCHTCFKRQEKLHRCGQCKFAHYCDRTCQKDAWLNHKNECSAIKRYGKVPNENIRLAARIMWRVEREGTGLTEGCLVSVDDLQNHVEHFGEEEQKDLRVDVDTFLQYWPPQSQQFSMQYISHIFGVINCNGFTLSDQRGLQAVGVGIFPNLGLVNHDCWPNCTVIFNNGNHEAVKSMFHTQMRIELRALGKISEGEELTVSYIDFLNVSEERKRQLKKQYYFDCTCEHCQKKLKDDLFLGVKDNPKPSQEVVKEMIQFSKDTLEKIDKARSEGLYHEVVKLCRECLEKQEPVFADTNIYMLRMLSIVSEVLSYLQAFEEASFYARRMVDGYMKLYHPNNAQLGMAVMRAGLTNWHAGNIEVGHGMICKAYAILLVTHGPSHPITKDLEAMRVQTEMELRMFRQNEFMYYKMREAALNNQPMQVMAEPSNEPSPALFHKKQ
# Sequence of PRMT1 (Q99873 whole entry, species assumed): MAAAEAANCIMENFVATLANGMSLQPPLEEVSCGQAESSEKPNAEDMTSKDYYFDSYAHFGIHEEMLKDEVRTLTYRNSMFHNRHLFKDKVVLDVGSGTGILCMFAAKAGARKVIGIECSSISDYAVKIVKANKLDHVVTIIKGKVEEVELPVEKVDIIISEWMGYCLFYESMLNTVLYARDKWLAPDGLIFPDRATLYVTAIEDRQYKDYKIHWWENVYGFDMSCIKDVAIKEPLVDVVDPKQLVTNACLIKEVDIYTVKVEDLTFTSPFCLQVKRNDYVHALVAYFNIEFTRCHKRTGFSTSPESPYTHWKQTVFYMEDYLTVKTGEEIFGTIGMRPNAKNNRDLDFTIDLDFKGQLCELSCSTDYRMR
# Sequence of SET7/9 (Q8WTS6 whole entry, species assumed): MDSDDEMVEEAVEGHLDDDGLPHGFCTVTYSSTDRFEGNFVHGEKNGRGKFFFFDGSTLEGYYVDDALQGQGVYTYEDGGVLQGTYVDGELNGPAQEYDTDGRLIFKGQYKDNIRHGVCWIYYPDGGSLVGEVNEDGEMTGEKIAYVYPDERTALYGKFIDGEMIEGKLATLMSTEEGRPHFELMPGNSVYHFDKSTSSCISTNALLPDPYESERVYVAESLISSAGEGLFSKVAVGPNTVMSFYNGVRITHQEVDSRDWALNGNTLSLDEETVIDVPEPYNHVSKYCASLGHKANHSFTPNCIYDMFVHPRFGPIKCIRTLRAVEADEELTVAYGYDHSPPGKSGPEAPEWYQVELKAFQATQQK
# Sequence of SETD2 (Q9BYW2 whole entry, species assumed): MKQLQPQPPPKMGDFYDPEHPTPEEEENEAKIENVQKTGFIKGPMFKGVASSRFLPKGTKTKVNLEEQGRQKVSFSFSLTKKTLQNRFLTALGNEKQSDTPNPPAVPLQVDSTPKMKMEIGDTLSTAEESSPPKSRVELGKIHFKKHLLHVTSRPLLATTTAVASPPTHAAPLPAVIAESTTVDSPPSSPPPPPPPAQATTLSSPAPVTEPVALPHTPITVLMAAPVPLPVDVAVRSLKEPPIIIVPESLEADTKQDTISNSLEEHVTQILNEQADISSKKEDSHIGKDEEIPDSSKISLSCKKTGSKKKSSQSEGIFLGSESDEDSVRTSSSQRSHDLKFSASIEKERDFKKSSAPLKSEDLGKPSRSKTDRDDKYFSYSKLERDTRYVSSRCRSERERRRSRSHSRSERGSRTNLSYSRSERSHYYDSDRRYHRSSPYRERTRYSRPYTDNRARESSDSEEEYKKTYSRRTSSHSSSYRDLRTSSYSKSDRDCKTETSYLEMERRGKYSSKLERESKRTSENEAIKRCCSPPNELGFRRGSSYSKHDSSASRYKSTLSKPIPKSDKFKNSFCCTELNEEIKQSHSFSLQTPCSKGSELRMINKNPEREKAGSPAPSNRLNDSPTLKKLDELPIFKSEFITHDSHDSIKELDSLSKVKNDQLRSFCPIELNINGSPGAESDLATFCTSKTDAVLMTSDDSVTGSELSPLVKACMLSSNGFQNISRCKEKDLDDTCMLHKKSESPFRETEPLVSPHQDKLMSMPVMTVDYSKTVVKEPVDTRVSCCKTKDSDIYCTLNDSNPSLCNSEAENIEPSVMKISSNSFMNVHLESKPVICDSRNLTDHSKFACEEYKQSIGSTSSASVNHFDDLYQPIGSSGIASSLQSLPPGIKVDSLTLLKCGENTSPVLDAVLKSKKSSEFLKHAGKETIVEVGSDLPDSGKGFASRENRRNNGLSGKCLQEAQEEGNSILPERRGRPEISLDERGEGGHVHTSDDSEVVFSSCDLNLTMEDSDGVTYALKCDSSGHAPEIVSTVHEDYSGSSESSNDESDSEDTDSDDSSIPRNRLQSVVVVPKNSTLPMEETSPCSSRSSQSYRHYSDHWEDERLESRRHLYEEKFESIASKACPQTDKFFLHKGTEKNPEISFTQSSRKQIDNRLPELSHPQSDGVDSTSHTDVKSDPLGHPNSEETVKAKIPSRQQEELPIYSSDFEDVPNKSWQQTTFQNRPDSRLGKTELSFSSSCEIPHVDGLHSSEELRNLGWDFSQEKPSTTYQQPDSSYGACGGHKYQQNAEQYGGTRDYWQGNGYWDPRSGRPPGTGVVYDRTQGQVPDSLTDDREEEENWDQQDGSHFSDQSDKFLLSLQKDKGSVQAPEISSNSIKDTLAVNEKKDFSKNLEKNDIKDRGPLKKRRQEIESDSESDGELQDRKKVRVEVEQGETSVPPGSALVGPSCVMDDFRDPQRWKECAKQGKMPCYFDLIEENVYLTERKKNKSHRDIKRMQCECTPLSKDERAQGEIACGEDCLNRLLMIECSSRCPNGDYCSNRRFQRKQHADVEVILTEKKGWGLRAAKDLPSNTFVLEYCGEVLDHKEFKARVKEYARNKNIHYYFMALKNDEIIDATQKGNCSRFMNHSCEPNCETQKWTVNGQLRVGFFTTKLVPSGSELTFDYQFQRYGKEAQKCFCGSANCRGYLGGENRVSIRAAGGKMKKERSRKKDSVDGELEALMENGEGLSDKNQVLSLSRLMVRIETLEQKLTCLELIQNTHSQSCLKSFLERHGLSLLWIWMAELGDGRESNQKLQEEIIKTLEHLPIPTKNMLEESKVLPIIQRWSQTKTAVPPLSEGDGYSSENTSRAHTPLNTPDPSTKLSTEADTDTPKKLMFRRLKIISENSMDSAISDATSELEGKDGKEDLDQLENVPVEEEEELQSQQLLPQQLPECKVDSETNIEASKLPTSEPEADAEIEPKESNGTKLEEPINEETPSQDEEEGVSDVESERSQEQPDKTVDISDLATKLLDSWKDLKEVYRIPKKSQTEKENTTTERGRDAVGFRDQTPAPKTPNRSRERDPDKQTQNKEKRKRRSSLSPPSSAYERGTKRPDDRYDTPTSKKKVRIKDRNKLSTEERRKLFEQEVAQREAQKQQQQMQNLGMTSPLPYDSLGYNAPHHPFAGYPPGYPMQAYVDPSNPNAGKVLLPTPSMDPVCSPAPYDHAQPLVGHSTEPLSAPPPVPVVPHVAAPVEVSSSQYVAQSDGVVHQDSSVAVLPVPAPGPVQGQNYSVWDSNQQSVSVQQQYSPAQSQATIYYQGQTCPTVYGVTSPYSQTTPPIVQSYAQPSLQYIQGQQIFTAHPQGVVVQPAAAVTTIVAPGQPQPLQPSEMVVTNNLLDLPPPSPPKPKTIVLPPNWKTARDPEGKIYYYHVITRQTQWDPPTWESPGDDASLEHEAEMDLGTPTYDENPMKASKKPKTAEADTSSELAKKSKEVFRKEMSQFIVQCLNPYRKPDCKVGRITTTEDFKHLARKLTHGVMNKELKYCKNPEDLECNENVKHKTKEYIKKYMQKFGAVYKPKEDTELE
compound,measurement,setting,value
CN1CC(C(=O)NCc2ccc3c(-c4cccc(C(N)=S)c4)cn(C4CCN(S(=O)(=O)C(F)(F)F)CC4)c3c2)C1 [AS-99],GSEA: transcriptional programs driven by MLL fusion proteins and HOXA9,MV4;11 cells; MV4;11,downregulation of transcriptional programs driven by MLL fusion proteins and HOXA9
same,number of downregulated genes,MV4;11 cells; [3],323
same,number of up-regulated genes,MV4;11 cells; [3],75
same,reduction in the bioluminescence signal versus vehicle,"[1]; 30 mg/kg, i.p., q.d., 14 days",65%
same,average radiance,[1]; day 6 after transplantation (start of treatment),6110 p/s/cm2/sr and 4700 p/s/cm2/sr and 4630 p/s/cm2/sr and 3760 p/s/cm2/sr and 10800 p/s/cm2/sr and 52500 p/s/cm2/sr and 8750 p/s/cm2/sr
same,average radiance,[1]; day 13 after transplantation,199000 p/s/cm2/sr and 275000 p/s/cm2/sr and 78900 p/s/cm2/sr and 62500 p/s/cm2/sr and 231000 p/s/cm2/sr and 5680 p/s/cm2/sr and 144000 p/s/cm2/sr
same,average radiance,[1]; day 19 after transplantation (last day of treatment),1090000 p/s/cm2/sr (2×) and 1280000 p/s/cm2/sr and 524000 p/s/cm2/sr and 386000 p/s/cm2/sr and 8110 p/s/cm2/sr and 9660 p/s/cm2/sr
same,AUC,"PK studies in mice; female, CD-1, mouse, plasma, ip, 30 mg/kg",10700 ng·h/mL
same,concentration at 0.167 h,"PK studies in mice; female, CD-1, mouse, plasma, ip, 30 mg/kg, blood plasma level of AS-99, i.p., time 0.167 h",9800 nM
same,concentration at 0.25 h,"PK studies in mice; female, CD-1, mouse, plasma, ip, 30 mg/kg, blood plasma level of AS-99, i.p., time 0.25 h",9110 nM
same,concentration at 0.5 h,"PK studies in mice; female, CD-1, mouse, plasma, ip, 30 mg/kg, blood plasma level of AS-99, i.p., time 0.5 h",6580 nM
same,concentration at 1 h,"PK studies in mice; female, CD-1, mouse, plasma, ip, 30 mg/kg, blood plasma level of AS-99, i.p., time 1 h",6110 nM
same,concentration at 2 h,"PK studies in mice; female, CD-1, mouse, plasma, ip, 30 mg/kg, blood plasma level of AS-99, i.p., time 2 h",2760 nM
same,concentration at 4 h,"PK studies in mice; female, CD-1, mouse, plasma, ip, 30 mg/kg, blood plasma level of AS-99, i.p., time 4 h",840 nM
same,concentration at 7 h,"PK studies in mice; female, CD-1, mouse, plasma, ip, 30 mg/kg, blood plasma level of AS-99, i.p., time 7 h",300 nM
same,concentration at 16 h,"PK studies in mice; female, CD-1, mouse, plasma, ip, 30 mg/kg, blood plasma level of AS-99, i.p., time 16 h",84 nM
same,concentration at 24 h,"PK studies in mice; female, CD-1, mouse, plasma, ip, 30 mg/kg, blood plasma level of AS-99, i.p., time 24 h",33.7 nM
same,AUC,"PK studies in mice; female, CD-1, mouse, plasma, iv, 15 mg/kg",9700 ng·h/mL
same,concentration at 0.083 h,"PK studies in mice; female, CD-1, mouse, plasma, iv, 15 mg/kg, blood plasma level of AS-99, i.v., time 0.083 h",25800 nM
same,concentration at 0.167 h,"PK studies in mice; female, CD-1, mouse, plasma, iv, 15 mg/kg, blood plasma level of AS-99, i.v., time 0.167 h",10200 nM
same,concentration at 0.25 h,"PK studies in mice; female, CD-1, mouse, plasma, iv, 15 mg/kg, blood plasma level of AS-99, i.v., time 0.25 h",6620 nM
same,concentration at 0.5 h,"PK studies in mice; female, CD-1, mouse, plasma, iv, 15 mg/kg, blood plasma level of AS-99, i.v., time 0.5 h",5200 nM
same,concentration at 1 h,"PK studies in mice; female, CD-1, mouse, plasma, iv, 15 mg/kg, blood plasma level of AS-99, i.v., time 1 h",1780 nM
same,concentration at 2 h,"PK studies in mice; female, CD-1, mouse, plasma, iv, 15 mg/kg, blood plasma level of AS-99, i.v., time 2 h",854 nM
same,concentration at 4 h,"PK studies in mice; female, CD-1, mouse, plasma, iv, 15 mg/kg, blood plasma level of AS-99, i.v., time 4 h",268 nM
same,concentration at 7 h,"PK studies in mice; female, CD-1, mouse, plasma, iv, 15 mg/kg, blood plasma level of AS-99, i.v., time 7 h",126 nM
same,concentration at 16 h,"PK studies in mice; female, CD-1, mouse, plasma, iv, 15 mg/kg, blood plasma level of AS-99, i.v., time 16 h",24.7 nM
same,concentration at 24 h,"PK studies in mice; female, CD-1, mouse, plasma, iv, 15 mg/kg, blood plasma level of AS-99, i.v., time 24 h",15.1 nM
same,Cmax,PK studies in mice; [4],> 10000 nM
same,half-life,PK studies in mice; [4],5 to 6 h
same,blood plasma level of AS-99,"PK studies in mice; i.p., time 0.167 h",8805 nM and 7458 nM
same,blood plasma level of AS-99,"PK studies in mice; i.p., time 0.25 h",6902 nM and 8721 nM
same,blood plasma level of AS-99,"PK studies in mice; i.p., time 0.5 h",6683.5 nM and 5152 nM
same,blood plasma level of AS-99,"PK studies in mice; i.p., time 1 h",5269 nM and 5185 nM
same,blood plasma level of AS-99,"PK studies in mice; i.p., time 2 h",3266 nM and 1801 nM
same,blood plasma level of AS-99,"PK studies in mice; i.p., time 4 h",1054 nM and 710.4 nM
same,blood plasma level of AS-99,"PK studies in mice; i.p., time 7 h",351.9 nM and 247.5 nM
same,blood plasma level of AS-99,"PK studies in mice; i.p., time 16 h",71.89 nM and 86.7 nM
same,blood plasma level of AS-99,"PK studies in mice; i.p., time 24 h",43.77 nM and 41.41 nM
same,blood plasma level of AS-99,"PK studies in mice; i.v., time 0.083 h",37878.8 nM
same,blood plasma level of AS-99,"PK studies in mice; i.v., time 0.167 h",7643.1 nM
same,blood plasma level of AS-99,"PK studies in mice; i.v., time 0.25 h",5774 nM
same,blood plasma level of AS-99,"PK studies in mice; i.v., time 0.5 h",4798 nM
same,blood plasma level of AS-99,"PK studies in mice; i.v., time 1 h",2559 nM
same,blood plasma level of AS-99,"PK studies in mice; i.v., time 2 h",611.1 nM
same,blood plasma level of AS-99,"PK studies in mice; i.v., time 4 h",217.2 nM
same,blood plasma level of AS-99,"PK studies in mice; i.v., time 7 h",94.11 nM
same,blood plasma level of AS-99,"PK studies in mice; i.v., time 16 h",29.8 nM
same,blood plasma level of AS-99,"PK studies in mice; i.v., time 24 h",15.32 nM
same,activity at 50 µM,DOT1L,107%
same,% activity,DOT1L; 50 µM,93.8212%
same,% activity,MLL4,79.3828% and 71.6922%
same,activity at 50 µM,NSD1,112%
same,% activity,NSD1; 50 µM,113.763%
same,activity at 50 µM,PRMT1,122%
same,% activity,PRMT1; 50 µM,110.616%
same,activity at 50 µM,PRMT4,103%
same,% activity,PRMT4; 50 µM,110.439%
same,activity at 50 µM,SETD2,101%
same,% activity,SETD2; 50 µM,99.1882%
same,activity at 50 µM,SET7/9,81.7%
same,% activity,SET7/9; 50 µM,85.3173%
same,activity at 50 µM,SMYD1,81.1%
same,% activity,SMYD1; 50 µM,68.7304%
same,inhibition in a panel of representative kinases,[2],does not inhibit strongly; also recorded: did not show substantial inhibition
